Patent US9062037B2, “Tazarotene derivatives” (Stiefel Laboratories, Inc., priority 2009, dated 2015)
Read-outs that look alike come from different tables or passages of the source.

Key:
[1] = tested on: Reconstructed human epidermis (RHE) tissues; experiment: RT-qPCR gene expression of K10, K19, filaggrin, K4 and K13 in reconstructed human epidermis (RHE) cultures; type: cell-based; conditions: 72 h, 2.83 mM in OD/10% DMSO, 6 μl
Experimental: Reconstructed human epidermis (RHE) tissues were cultured in-house as previously described by Poumay et al. Briefly, polycarbonate culture inserts (12 mm diameter and 0.4 μm pore size, Millipore) were filled with 150 μL of a suspension containing approximately 5×10^5 primary adult human keratinocytes. The inserts received another 500 μL of keratinocyte culture media and were placed in a 6-well plate (1 insert/well) containing 2.5 mL of RHE Growth Media (Epilife media +1.5 mM CaCl2). RHE cultures were incubated at 37° C. in a humidified atmosphere containing 5% CO2, for 24 hours. Subsequently (on Day 0), RHE cultures were exposed to the air-liquid interface by removing the RHE Growth Media from the top of the cultures, and replacing with 1.5 mL/well of RHE Growth Media containing 50 μg/mL vitamin C. Media was changed every other day until the cultures were dosed with Test Articles. A stock solution of 0.1% tazarotene (2.83 mM at 99.5% purity) in OD/10% DMSO was prepared. For tazarotene benzoate, hydroxytazarotenic acid, keto tazarotenic acid, keto tazarotene, and tazarotene nicotinate, a 10 mg/mL stock solution (in DMSO) was already prepared. From this stock solution, a 2.83 mM working solution (in octyldodecanol) was prepared. All other tested compounds were resuspended in DMSO and OD to obtain a final concentration of 2.83 mM in OD/10% DMSO. On Day 12, the cultures were placed in 60 mm petri dishes containing 3 mL of RHE Growth Media (+VitC). Test articles (6 μl) were applied to triplicate cultures and cultures were incubated at 37° C. for 72 hours. Untreated and OD alone served as negative controls. At the end of the incubation period, the growth media was collected and stored at −20° C. The tissues were cut in half: one half was placed in 10% NBF for histology, and the other half was placed in RNAlater™ solution for RT-qPCR. RNA was isolated and concentrations were determined using a NanoDrop spectrophotometer. In addition to using the same amount of RNA for each sample, data was normalized to internal GAPDH mRNA levels and is expressed as relative quantification (RQ) to untreated controls. RNA extracts from each replicate were amplified using RT-qPCR. The relative gene expression of five biomarkers was determined: Keratin 10, Keratin 19, Filaggrin, Keratin 4, and Keratin 13.

[2] = Metabolism in the presence of human skin microsomes; conditions: human skin microsomes; paraoxon 0, 10 or 100 μM
Experimental: Hepatic microsomal reactions were carried out in microcentrifuge tubes in the following manner. Human liver microsomes (0.5 or 1.0 mg/ml protein), Test Article (1 or 10 μM), paraoxon (0, 10 or 100 μM), NADPH regenerating system (10 mM glucose-6-phosphate, 1 unit/ml glucose-6-phosphate dehydrogenase, 1 mM NADP^+), magnesium chloride (5 mM) in 0.1 M potassium phosphate buffer, pH 7.4 were incubated at 37° C. in a shaking water bath. Reactions were initiated with the addition of substrate with the exception of the zero-time incubations. The total reaction volume was 0.2 ml. The reactions were incubated for 15, 30, 45 or 60 minutes, terminated with 0.2 ml ice-cold acetonitrile and then placed on ice. For zero-time incubations, ice cold acetonitrile was added to the mixture containing microsomes, along with NADPH regenerating system, magnesium chloride in phosphate buffer and the Test Article. Each time point was carried out in triplicate.
Five time points were chosen, but because of the limitation of human skin microsome supply, each one was carried out in duplicate. Skin microsomal reactions were carried out as described above for hepatic microsomal reactions with the following two exceptions. Firstly, the total reaction volume was 0.1 mL. Secondly, incubations were terminated with 0.1 mL acetonitrile.

[3] = read-out: K4 Fold Change vs Untreated/OD controls (upregulation)
[4] = read-out: K13 Fold Change vs Untreated/OD controls (upregulation)
[5] = read-out: K19 Fold Change vs Untreated/OD controls (upregulation)
[6] = human liver microsomes, paraoxon 0, 10 or 100 μM

CCOC(=O)c1ccc(C#Cc2ccc3c(c2)C(C)(C)CC(OC(=O)[C@@H](N)C(C)C)S3)nc1 (stereo partly drawn) [Compound 29, 6-[2-((S)-2-Amino-3-methyl-butyryloxy)-4,4-dimethyl-thiochroman-6-ylethynyl]-nicotinic acid ethyl ester]
fold induction at 2830 µM [1, 3]: 71
fold induction at 2830 µM [1, 4]: 13
fold induction at 2830 µM [1, 5]: 29

CCOC(=O)c1ccc(C#Cc2ccc3c(c2)C(C)(C)CC(=O)S3)nc1 [Compound 12, ethyl 6-((4,4-dimethyl-2-oxothiochroman-6-yl)ethynyl)nicotinate]
fold induction at 2830 µM [1, 3]: 103 to 180
fold induction at 2830 µM [1, 4]: 15
fold induction at 2830 µM [1, 5]: 27

CCOc1ccc2ccc(=O)oc2c1 [7-ethoxycoumarin]
metabolized by human liver microsomes (positive control) (initial concentration 10 μM, 0 or 30 minutes): as expected

CCOC(=O)c1ccc(C#Cc2ccc3c(c2)C(C)(C)CC(OC(=O)c2ccccc2O)S3)nc1 (stereo not drawn) [Compound 25, Ethyl 6-[(2-salicylicyl-4,4-dimethyl-3,4-dihydro-2-thiochromen-6-yl)ethynyl]pyridine-3-carboxylate]
fold induction at 2830 µM [1, 3]: 103 to 180
fold induction at 2830 µM [1, 4]: 17
fold induction at 2830 µM [1, 5]: 23

CCCCCCCCCCCC(=O)OC1CC(C)(C)c2cc(C#Cc3ccc(C(=O)OCC)cn3)ccc2S1 (stereo not drawn) [Compound 19]
fold induction at 2830 µM [1, 3]: 19
fold induction at 2830 µM [1, 4]: 2
fold induction at 2830 µM [1, 5]: 2

CCCC(=O)OC1CC(C)(C)c2cc(C#Cc3ccc(C(=O)OCC)cn3)ccc2S1 (stereo not drawn) [Compound 18, Ethyl 6-[(2-n-butyryloxyl-4,4-dimethyl-3,4-dihydro-2-thiochromen-6-yl)ethynyl]pyridine-3-carboxylate]
fold induction at 2830 µM [1, 3]: 60
fold induction at 2830 µM [1, 4]: 9
fold induction at 2830 µM [1, 5]: 22

CCOC(=O)c1ccc(C#Cc2ccc3c(c2)C(C)(C)CC(OC(=O)CO)S3)nc1 (stereo not drawn) [Compound 15, 6-[2-(2-Hydroxy-acetoxy)-4,4-dimethyl-thiochroman-6-ylethynyl]-nicotinic acid ethyl ester]
fold induction at 2830 µM [1, 3]: 64
fold induction at 2830 µM [1, 4]: 12
fold induction at 2830 µM [1, 5]: 33 to 43

CCOC(=O)c1ccc(C#Cc2ccc3c(c2)C(C)(C)C[C@H](OC(=O)c2ccccc2)S3)nc1 [Compound 6, (R)-6-(2-(2-benzoyloxy-4,4-dimethylthiochroman-6-yl)ethynyl)nicotinic acid, ethyl ester]
fold induction at 2830 µM [1, 3]: 20
fold induction at 2830 µM [1, 4]: 7
fold induction at 2830 µM [1, 5]: 8

CC1(C)CC(=O)Sc2ccc(C#Cc3ccc(C(=O)O)cn3)cc21 [Compound 11, 6-((4,4-dimethyl-2-oxothiochroman-6-yl)ethynyl)nicotinic acid]
fold induction at 2830 µM [1, 3]: 52
fold induction at 2830 µM [1, 4]: 20
fold induction at 2830 µM [1, 5]: 21

CCOC(=O)c1ccc(C#Cc2ccc3c(c2)C(C)(C)C[C@@H](OC(=O)c2cccnc2)S3)nc1 [Compound 8, (S)-6-[4,4-dimethyl-2-(pyridine-3-carbonyloxy)thiochroman-6-ylethynyl]nicotinic acid ethyl ester]
fold induction at 2830 µM [1, 3]: 35
fold induction at 2830 µM [1, 4]: 7
fold induction at 2830 µM [1, 5]: 18

CCOC(=O)c1ccc(C#Cc2ccc3c(c2)C(C)(C)C[C@H](OC(=O)c2cccnc2)S3)nc1 [Compound 9, (R)-6-[4,4-dimethyl-2-(pyridine-3-carbonyloxy)thiochroman-6-ylethynyl]nicotinic acid ethyl ester]
fold induction at 2830 µM [1, 3]: 32
fold induction at 2830 µM [1, 4]: 5
fold induction at 2830 µM [1, 5]: 17

CCOC(=O)c1ccc(C#Cc2ccc3c(c2)C(C)(C)CC(OC(=O)C(C)C)S3)nc1 (stereo not drawn) [Compound 20, Ethyl 6-[(2-isobutyryloxy-4,4-dimethyl-3,4-dihydro-2-thiochromen-6-yl)ethynyl]pyridine-3-carboxylate]
fold induction at 2830 µM [1, 3]: 22
fold induction at 2830 µM [1, 4]: 6
fold induction at 2830 µM [1, 5]: 15

CCOC(=O)c1ccc(C#Cc2ccc3c(c2)C(C)(C)CC(OC(=O)CCCCC(=O)OC)S3)nc1 (stereo not drawn) [Compound 27, Ethyl 6-[(2-monomethyladopyl-4,4-dimethyl-3,4-dihydro-2-thiochromen-6-yl)ethynyl]pyridine-3-carboxylate]
fold induction at 2830 µM [1, 3]: 70
fold induction at 2830 µM [1, 4]: 19
fold induction at 2830 µM [1, 5]: 33 to 43

CCOC(=O)c1ccc(C#Cc2ccc3c(c2)C(C)(C)CC(O)S3)nc1 (stereo not drawn) [Compound 14, Ethyl 6-[(2-hydroxy-4,4-dimethyl-3,4-dihydro-2-thiochromen-6-yl)ethynyl]pyridine-3-carboxylate]
fold induction at 2830 µM [1, 3]: 87
fold induction at 2830 µM [1, 4]: 20
fold induction at 2830 µM [1, 5]: 29

CCOC(=O)c1ccc(C#Cc2ccc3c(c2)C(C)(C)C[C@@H](OC(=O)c2ccccc2)S3)nc1 [Compound 5, (S)-6-(2-(2-benzoyloxy-4,4-dimethylthiochroman-6-yl)ethynyl) nicotinic acid, ethyl ester]
fold induction at 2830 µM [1, 3]: 45
fold induction at 2830 µM [1, 4]: 7
fold induction at 2830 µM [1, 5]: 8

CCOP(=O)(OCC)Oc1ccc([N+](=O)[O-])cc1 [Paraoxon]
inhibition of tazarotene benzoate metabolism to hydroxy tazarotenic acid [2]: inhibited
inhibition of the metabolism of tazarotenic acid to tazarotenic acid sulfoxide (CYP- and FMO-mediated reaction): did not inhibit
inhibition of tazarotene benzoate metabolism to hydroxy tazarotenic acid [6]: inhibited
inhibition of tazarotene metabolism to tazarotenic acid [6]: inhibited
inhibition of tazarotene sulfoxide metabolism to tazarotenic acid sulfoxide [6]: inhibited

CCOC(=O)c1ccc(C#Cc2ccc3c(c2)C(C)(C)CC(OC(=O)C2CCN(C)CC2)S3)nc1 (stereo not drawn) [Compound 23]
fold induction at 2830 µM [1, 3]: 73
fold induction at 2830 µM [1, 4]: 19
fold induction at 2830 µM [1, 5]: 33 to 43

CCOC(=O)c1ccc(C#Cc2ccc3c(c2)C(C)(C)CC(OC(=O)CC)S3)nc1 (stereo not drawn) [Compound 24]
fold induction at 2830 µM [1, 3]: 74
fold induction at 2830 µM [1, 4]: 23
fold induction at 2830 µM [1, 5]: 33 to 43

CCOC(=O)c1ccc(C#Cc2ccc3c(c2)C(C)(C)CC(OC(=O)C2CCOCC2)S3)nc1 (stereo not drawn) [Compound 26]
fold induction at 2830 µM [1, 3]: 90
fold induction at 2830 µM [1, 4]: 10
fold induction at 2830 µM [1, 5]: 20

CCOC(=O)c1ccc(C#Cc2ccc3c(c2)C(C)(C)CC(OC(=O)COC)S3)nc1 (stereo not drawn) [Compound 16]
fold induction at 2830 µM [1, 3]: 69
fold induction at 2830 µM [1, 4]: 9
fold induction at 2830 µM [1, 5]: 20

CCOC(=O)c1ccc(C#Cc2ccc3c(c2)C(C)(C)CC(OC(=O)CCCCCCCC(=O)OC)S3)nc1 (stereo not drawn) [Compound 28]
fold induction at 2830 µM [1, 3]: 103 to 180
fold induction at 2830 µM [1, 4]: 18
fold induction at 2830 µM [1, 5]: 30

CC1(C)CC(O)Sc2ccc(C#Cc3ccc(C(=O)O)cn3)cc21 (stereo not drawn) [Compound 10, 6-((2-hydroxy-4,4-dimethylthiochroman-6-yl)ethynyl)nicotinic acid]
fold induction at 2830 µM [1, 3]: 65
fold induction at 2830 µM [1, 4]: 11
fold induction at 2830 µM [1, 5]: 25

CCCCCCCCCCCCCCCC(=O)OC1CC(C)(C)c2cc(C#Cc3ccc(C(=O)OCC)cn3)ccc2S1 (stereo not drawn) [Compound 13]
fold induction at 2830 µM [1, 3]: 38
fold induction at 2830 µM [1, 4]: 6
fold induction at 2830 µM [1, 5]: 4

CC/C=C\C/C=C\C/C=C\CCCCCCC(=O)OC1CC(C)(C)c2cc(C#Cc3ccc(C(=O)OCC)cn3)ccc2S1 (stereo not drawn) [Compound 22]
fold induction at 2830 µM [1, 3]: 38
fold induction at 2830 µM [1, 4]: 10
fold induction at 2830 µM [1, 5]: 12

CCOC(=O)c1ccc(C#Cc2ccc3c(c2)C(C)(C)CC(OC(C)=O)S3)nc1 (stereo not drawn) [Compound 17]
fold induction at 2830 µM [1, 3]: 103 to 180
fold induction at 2830 µM [1, 4]: 15
fold induction at 2830 µM [1, 5]: 24
